Columns and labels:
[1] = test system: retinal ganglion cells (RGCs); assay type: in vivo, Sprague-Dawley rats
[2] = test system: glaucomatous and normal (contralateral) eyes; parameters: species or system Brown Norway rats; conditions: rat, in vivo, 3.5 mg/kg
Protocol: IOP from glaucomatous and normal (contralateral) eyes was measured in awake animals using a calibrated tonometer (TonoPen XL, Medtronic Solan, Jacksonville, Fla.). Ten to fifteen consecutive readings per eye were taken and averaged to obtain an accurate daily IOP measurement. IOP was measured daily for two weeks after ocular hypertension surgery, and then every other day for the entire duration of the experiment. The mean IOP (mm Hg±S.E.M.) per eye was the average of all IOP readings since the onset of pressure elevation. The maximum IOP measured in each individual eye, glaucomatous or normal contralateral eye, was defined as the peak IOP and this value was used to estimate the mean peak IOP for each group. The delta positive integral IOP was calculated as the area under the IOP curve in the glaucomatous eye minus that of the fellow normal eye from ocular hypertension surgery to euthanasia. Integral IOP represents the total, cumulative IOP exposure throughout the entire experiment.
For this purpose, Applicant measured intraocular pressure every other day for entire duration of daily treatment with galantamine up to 35 days after ocular hypertension (OHT) surgery.

[3] = mouse, in vivo; cited from earlier work
[4] = human, in vivo; cited from earlier work
[5] = test system: retinal ganglion cells (RGCs); parameters: species or system Brown Norway rats; conditions: rat, in vivo, ip, 3.5 mg/kg
Protocol: Two weeks after ocular hypertension surgery, animals were subjected to daily treatment with galantamine ˜3.5 mg/kg body weight, intraperitoneal administration (i.p.). Analysis of RGC survival was carried out at 5 weeks after ocular hypertension surgery.
Therefore, two weeks after ocular hypertension surgery, animals received daily intraperitoneal (i.p) injections of galantamine at a dose of 3.5 mg/kg b.w. as shown in FIG. 2.
All surgeries were performed in adult male Brown Norway rats, retired breeders, between 10-12 months of age (300-400 g), under general anesthesia by intraperitoneal injection of 1 ml/kg b.w. standard rat cocktail consisting of ketamine (100 mg/ml), xylazine (20 mg/ml) and acepromazine (10 mg/ml).
Seven days after DiI application, the time required for labeling the entire RGC population, animals were subjected to ocular hypertension surgery as described below. […]
Analysis of RGC survival was carried out at 5 weeks after ocular hypertension surgery. Quantification of RGC bodies or axons was always performed in duplicate and in a masked fashion. […] Under fluorescence microscopy, DiI-labeled or FluoroGold-labeled neurons were counted in 12 standard retinal areas as previously described (Cheng et al. 2002; Sapieha et al. 2003).

[6] = molecular target: alpha-7 nicotinic acetylcholine receptor (Rattus norvegicus, UniProt Q05941); parameters: species or system Sprague-Dawley rats; conditions: in vivo
Sequence of alpha-7 nicotinic acetylcholine receptor (Q05941 23-502 limits assumed): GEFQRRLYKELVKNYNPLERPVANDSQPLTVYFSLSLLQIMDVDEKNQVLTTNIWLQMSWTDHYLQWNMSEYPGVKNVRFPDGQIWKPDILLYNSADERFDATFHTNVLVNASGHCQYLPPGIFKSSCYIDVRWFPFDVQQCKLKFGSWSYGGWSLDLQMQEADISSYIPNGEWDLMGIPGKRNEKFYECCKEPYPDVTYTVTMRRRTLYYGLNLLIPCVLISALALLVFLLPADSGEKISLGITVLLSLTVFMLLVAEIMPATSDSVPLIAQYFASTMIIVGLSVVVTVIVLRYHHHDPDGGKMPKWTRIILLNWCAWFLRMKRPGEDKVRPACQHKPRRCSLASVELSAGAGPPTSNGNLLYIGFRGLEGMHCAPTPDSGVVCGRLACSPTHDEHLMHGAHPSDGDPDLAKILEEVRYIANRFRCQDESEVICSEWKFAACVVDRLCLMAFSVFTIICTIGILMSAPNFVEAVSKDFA

Question: With COc1cc2c(cc1OC)C(=O)C(CC1CCN(Cc3ccccc3)CC1)C2 (stereo not shown) [Donepezil, donepezil] as the molecule, how does the “neuroprotection of RGCs after axotomy, galantamine vs donepezil (in words)” value ([1]; 3.5 mg/kg b.w., single intraocular injection, 1 week after optic nerve axotomy) read?
Answer: neuroprotective after axotomy

Question: Which “Integral IOP” value [2] does the source give for COc1ccc2c3c1O[C@H]1C[C@@H](O)C=C[C@@]31CCN(C)C2 [Galantamine, galantamine] here?
Answer: 321 ± 10 mm Hg

Question: And the “Mean IOP Control” value [2]?
Answer: 23.7 ± 0.2 mm Hg

Question: What about the “Mean IOP Glaucoma” value [2] of the same molecule?
Answer: 40.7 ± 0.8 mm Hg

Question: What about the brain levels [3] of the same molecule?
Answer: 200 to 1000 nM

Question: What about the RGCs remaining alive ([1]; rat, in vivo) of the same molecule?
Answer: ~30%

Question: And the “survival of axotomized RGCs” value ([1]; rat, in vivo)?
Answer: > 75%

Question: And the “estimated brain concentration of functionally available galantamine” value [4]?
Answer: 500 to 1200 nM

Question: What about the RGCs preserved [5] of the same molecule?
Answer: 90%

Question: For Alpha-bungarotoxin, which “block of the total neuroprotective effect of galantamine” value [6] is on record?
Answer: 10-15%
